Reference: PubChem BioAssay (NCI)
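Tested at 5 concentrations; 48 h exposure; 96-well plates; endpoints linearly interpolated, else capped at highest concentration. TGI: concentration producing complete growth inhibition.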

Columns and labels:
Assay in all cases: NCI anticancer screen, dose series, 48 h
786-0 renal = system: 786-0 renal
A498 renal = system: A498 renal
A549 NSCLC = system: A549 NSCLC
ACHN renal = system: ACHN renal
BT-549 breast = system: BT-549 breast
CAKI-1 renal = system: CAKI-1 renal
CCRF-CEM leukemia = system: CCRF-CEM leukemia
COLO 205 colon = system: COLO 205 colon
DU-145 prostate = system: DU-145 prostate
EKVX NSCLC = system: EKVX NSCLC
HCC-2998 colon = system: HCC-2998 colon
HCT-116 colon = system: HCT-116 colon
HCT-15 colon = system: HCT-15 colon
HL-60(TB) leukemia = system: HL-60(TB) leukemia
HOP-62 NSCLC = system: HOP-62 NSCLC
HOP-92 NSCLC = system: HOP-92 NSCLC
HS 578T breast = system: HS 578T breast
HT29 colon = system: HT29 colon
IGROV1 ovarian = system: IGROV1 ovarian
K-562 leukemia = system: K-562 leukemia
KM12 colon = system: KM12 colon
LOX IMVI melanoma = system: LOX IMVI melanoma
M14 melanoma = system: M14 melanoma
MALME-3M melanoma = system: MALME-3M melanoma
MCF7 breast = system: MCF7 breast
MDA-MB-231 breast = system: MDA-MB-231 breast
MDA-MB-435 = system: MDA-MB-435
MDA-N = system: MDA-N
MOLT-4 leukemia = system: MOLT-4 leukemia
NCI-H226 lung = system: NCI-H226 lung
NCI-H23 lung = system: NCI-H23 lung
NCI-H460 lung = system: NCI-H460 lung
NCI-H522 lung = system: NCI-H522 lung
NCI/ADR-RES ovarian = system: NCI/ADR-RES ovarian
OVCAR-3 ovarian = system: OVCAR-3 ovarian
OVCAR-4 ovarian = system: OVCAR-4 ovarian
OVCAR-5 ovarian = system: OVCAR-5 ovarian
OVCAR-8 ovarian = system: OVCAR-8 ovarian
PC-3 prostate = system: PC-3 prostate
RPMI-8226 leukemia = system: RPMI-8226 leukemia
RXF 393 renal = system: RXF 393 renal
SF-268 CNS = system: SF-268 CNS
SF-295 CNS = system: SF-295 CNS
SF-539 CNS = system: SF-539 CNS
SK-MEL-2 melanoma = system: SK-MEL-2 melanoma
SK-MEL-28 melanoma = system: SK-MEL-28 melanoma
SK-MEL-5 melanoma = system: SK-MEL-5 melanoma
SK-OV-3 ovarian = system: SK-OV-3 ovarian
SN12C renal = system: SN12C renal
SNB-19 CNS = system: SNB-19 CNS
SNB-75 CNS = system: SNB-75 CNS
SR leukemia = system: SR leukemia
SW-620 colon = system: SW-620 colon
T-47D breast = system: T-47D breast
TK-10 renal = system: TK-10 renal
U251 CNS = system: U251 CNS
UACC-257 melanoma = system: UACC-257 melanoma
UACC-62 melanoma = system: UACC-62 melanoma
UO-31 renal = system: UO-31 renal

## CC(C)(C)c1cc(/C=C(\C#N)C2=NCCO2)cc(C(C)(C)C)c1O
786-0 renal
  TGI: 14.7 µM
A498 renal
  TGI: 16.7 µM
A549 NSCLC
  TGI: 19.7 µM
ACHN renal
  TGI: 14.5 µM
BT-549 breast
  TGI: 12.4 µM
CAKI-1 renal
  TGI: > 35.5 µM
CCRF-CEM leukemia
  TGI: 9.35 µM
COLO 205 colon
  TGI: 3.39 µM
DU-145 prostate
  TGI: > 40.9 µM
EKVX NSCLC
  TGI: 17.2 µM
HCC-2998 colon
  TGI: 8.77 µM
HCT-116 colon
  TGI: 11.9 µM
HCT-15 colon
  TGI: 13.1 µM
HL-60(TB) leukemia
  TGI: 5.87 µM
HOP-62 NSCLC
  TGI: > 38.9 µM
HOP-92 NSCLC
  TGI: 15.2 µM
HS 578T breast
  TGI: 34.1 µM
HT29 colon
  TGI: 11.7 µM
IGROV1 ovarian
  TGI: 21.9 µM
K-562 leukemia
  TGI: 16.5 µM
KM12 colon
  TGI: 15.6 µM
LOX IMVI melanoma
  TGI: 18.8 µM
M14 melanoma
  TGI: 17 µM
MALME-3M melanoma
  TGI: 19.6 µM
MCF7 breast
  TGI: 12.7 µM
MDA-MB-231 breast
  TGI: 12.4 µM
MDA-MB-435
  TGI: 32.3 µM
MDA-N
  TGI: 16.6 µM
MOLT-4 leukemia
  TGI: 21.1 µM
NCI-H226 lung
  TGI: 20.1 µM
NCI-H23 lung
  TGI: 13.4 µM
NCI-H460 lung
  TGI: 6.63 µM
NCI-H522 lung
  TGI: 9.06 µM
NCI/ADR-RES ovarian
  TGI: 10.7 µM
OVCAR-3 ovarian
  TGI: 7.51 µM
OVCAR-4 ovarian
  TGI: 22.8 µM
OVCAR-5 ovarian
  TGI: 10 µM
OVCAR-8 ovarian
  TGI: 19.6 µM
PC-3 prostate
  TGI: 7.37 µM
RPMI-8226 leukemia
  TGI: 4.74 µM
RXF 393 renal
  TGI: 14.7 µM
SF-268 CNS
  TGI: 16.1 µM
SF-295 CNS
  TGI: 9.8 µM
SF-539 CNS
  TGI: 12.2 µM
SK-MEL-2 melanoma
  TGI: 8.55 µM
SK-MEL-28 melanoma
  TGI: 29 µM
SK-MEL-5 melanoma
  TGI: 5.62 µM
SK-OV-3 ovarian
  TGI: > 32.9 µM
SN12C renal
  TGI: 10.1 µM
SNB-19 CNS
  TGI: 15.5 µM
SNB-75 CNS
  TGI: 7.47 µM
SR leukemia
  TGI: 8.91 µM
SW-620 colon
  TGI: 18.5 µM
T-47D breast
  TGI: 9.13 µM
TK-10 renal
  TGI: 16 µM
U251 CNS
  TGI: 12 µM
UACC-257 melanoma
  TGI: 7.89 µM
UACC-62 melanoma
  TGI: 17.1 µM
UO-31 renal
  TGI: 9.27 µM
